Assays:
CypD [1] = target: T1, CypD (Homo sapiens, UniProt P30405); assay: CypD binding assay (competition fluorescence polarisation with fluorescein-labelled cyclosporin)
Description: The binding capacity of the compounds were measured using a competition Fluorescence-Polarisation based assay with fluorescine labelled cyclosporin. The protocol used was adapted from Hausch et al, Med Chem lett 2010, p 536.

CypD [2] = target: T1, CypD; assay: SPR binding; conditions: SPR surface; read-out: SPR CypD (KDSS)
Description: Binding was confirmed on an SPR surface using a protocol adapted from Mori et al., J. Biomolecular Screening, 2009 p 419.

T1 sequence (P30405 30-207): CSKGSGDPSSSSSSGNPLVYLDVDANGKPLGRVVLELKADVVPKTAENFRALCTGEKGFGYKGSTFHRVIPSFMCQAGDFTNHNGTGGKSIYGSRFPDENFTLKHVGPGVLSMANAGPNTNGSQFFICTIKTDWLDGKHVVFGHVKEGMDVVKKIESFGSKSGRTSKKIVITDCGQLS

Row | Compound | IC50 (CypD [1]) [µM] | Kd (CypD [2]) [µM]
1 | CSc1ccccc1[C@H]1CCCN1C(=O)CNC(=O)NC(C)c1ccc2c(c1)CCCC(=O)N2 (stereo partly drawn) [Compound 21, 1-{2-[(R)-2-(2-Methylsulfanyl-phenyl)-pyrrolidin-1-yl]-2-oxo-ethyl}-3-[1-(2-oxo-2,3,4,5-tetrahydro-1H-benzo[b]azepin-7-yl)-ethyl]-urea] | 1 to 100 | 1 to 100
2 | CSc1ccccc1[C@H]1CCCN1C(=O)CNC(=O)CCc1ccc2c(c1)[C@@H]1C[C@H](N2)[C@H](O)CO1 [Compound 23, 3-((2S,3S,6S)-3-hydroxy-2,3,4,6-tetrahydro-1H-2,6-methanobenzo[c][1,5]oxazocin-8-yl)-N-(2-((R)-2-(2-(methylthio)phenyl)pyrrolidin-1-yl)-2-oxoethyl)propanamide] | 1 to 100 | 1 to 100
3 | CCN1Cc2cc(CNC(=O)NCC(=O)N3CCC[C@@H]3C(F)(F)F)ccc2NCCC1=O [Compound 24, 1-(5-Ethyl-4-oxo-1,2,3,4,5,6-hexahydro-benzo[b][1,5]diazocin-8-ylmethyl)-3-[2-oxo-2-((R)-2-trifluoromethyl-pyrrolidin-1-yl)-ethyl]-urea] | 1 to 100 | 1 to 100
4 | CSc1ccccc1[C@H]1CCCN1C(=O)CCC(=O)NCc1ccc2c(c1)[C@H]1C[C@@H](N2)[C@H](O)CO1 [Compound 2, N-((1R,9R,10S)-10-Hydroxy-12-oxa-8-aza-tricyclo[7.3.1.02,7]trideca-2,4,6-trien-4-ylmethyl)-4-[(R)-2-(2-methylsulfanyl-phenyl)-pyrrolidin-1-yl]-4-oxo-butyramide] | < 1 | < 1
5 | O=C(NCC(=O)N1CCCC1c1ccccc1C(F)(F)F)NCc1ccc2c(c1)[C@H]1C[C@@H](N2)[C@H](O)CO1 (stereo partly shown) [Compound 4] | < 1 | < 1
6 | CCN1Cc2cc(CNC(=O)NCC(=O)N3CCC[C@H]3CO)ccc2NCCC1=O [Compound 22, 1-(5-Ethyl-4-oxo-1,2,3,4,5,6-hexahydro-benzo[b][1,5]diazocin-8-ylmethyl)-3-[2-((S)-2-hydroxymethyl-pyrrolidin-1-yl)-2-oxo-ethyl]-urea] | 1 to 100 | 1 to 100
7 | CCN1Cc2cc(CCC(=O)NCC(=O)N3CCCC3c3ccccc3C(F)(F)F)ccc2NCCC1=O (stereo not shown) [Compound 19, 3-(5-Ethyl-4-oxo-1,2,3,4,5,6-hexahydro-benzo[b][1,5]diazocin-8-yl)-N-{2-oxo-2-[2-(2-trifluoromethyl-phenyl)-pyrrolidin-1-yl]-ethyl}-propionamide] | 1 to 100 | 1 to 100
8 | CCN1Cc2cc(CNC(=O)NCC(=O)N3CCCC3c3ccccc3C(F)(F)F)ccc2NCCC1=O (stereo not shown) [Compound 15, 1-(5-Ethyl-4-oxo-1,2,3,4,5,6-hexahydro-benzo[b][1,5]diazocin-8-ylmethyl)-3-{2-oxo-2-[2-(2-trifluoromethyl-phenyl)-pyrrolidin-1-yl]-ethyl}-urea] | 1 to 100 | 1 to 100
9 | CCN1Cc2cc(CCC(=O)N[C@H](C(=O)N3CCCC3)c3ccccc3)ccc2NCCC1=O [Compound 32, 3-(5-Ethyl-4-oxo-1,2,3,4,5,6-hexahydro-benzo[b][1,5]diazocin-8-yl)-N—((S)-2-oxo-1-phenyl-2-pyrrolidin-1-yl-ethyl)-propionamide] | 1 to 100 | 1 to 100
10 | C[C@H](c1ccccc1)N(C)C(=O)CNC(=O)NCc1ccc2c(c1)[C@H]1C[C@@H](N2)[C@H](O)CO1 [Compound 38, 2-(3-(((2R,3S,6R)-3-hydroxy-2,3,4,6-tetrahydro-1H-2,6-methanobenzo[c][1,5]oxazocin-8-yl)methyl)ureido)-N-methyl-N—((R)-1-phenylethyl)acetamide] | 1 to 100 | 1 to 100
11 | CSc1ccccc1[C@H]1CCCN1C(=O)CNC(=O)CCc1ccc2c(c1)[C@H]1C[C@@H](N2)[C@H](O)CO1 [Compound 5, 3-((1R,9R,10S)-10-Hydroxy-12-oxa-8-aza-tricyclo[7.3.1.02,7]trideca-2(7),3,5-trien-4-yl)-N-{2-[(R)-2-(2-methylsulfanyl-phenyl)-pyrrolidin-1-yl]-2-oxo-ethyl}-propionamide] | < 1 | < 1
12 | 3-((1R,9R,10S)-10-Hydroxy-12-oxa-8-aza-tricyclo[7.3.1.02,7]trideca-2(7),3,5-trien-4-yl)-N-(2-oxo-2-pyrrolidin-1-yl-ethyl)-propionamide [Compound 26] | 1 to 100 | 1 to 100
13 | CCN1Cc2cc(CNC(=O)NCC(=O)N3CCC[C@@H]3c3ccccc3SC)ccc2NCCC1=O [Compound 3, 1-(5-Ethyl-4-oxo-1,2,3,4,5,6-hexahydro-benzo[b][1,5]diazocin-8-ylmethyl)-3-{2-[(R)-2-(2-methylsulfanyl-phenyl)-pyrrolidin-1-yl]-2-oxo-ethyl}-urea] | < 1 | < 1

Further lines, results first:

Row | IC50 (CypD [1]) [µM] | Kd (CypD [2]) [µM] | Compound
14 | 1 to 100 | 1 to 100 | CCN1Cc2cc(CCC(=O)NCC(=O)N3CCC[C@@H]3c3ccccc3SC)ccc2NCCC1=O [Compound 11, 3-(5-Ethyl-4-oxo-1,2,3,4,5,6-hexahydro-benzo[b][1,5]diazocin-8-yl)-N-{2-[(R)-2-(2-methylsulfanyl-phenyl)-pyrrolidin-1-yl]-2-oxo-ethyl}-propionamide]
15 | 1 to 100 | < 1 | O=C(NCC(=O)N1CCCC1c1ccccn1)NCc1ccc2c(c1)[C@H]1C[C@@H](N2)[C@H](O)CO1 (stereo partly drawn) [Compound 9, 1-(((2R,3S,6R)-3-hydroxy-2,3,4,6-tetrahydro-1H-2,6-methanobenzo[c][1,5]oxazocin-8-yl)methyl)-3-(2-oxo-2-(2-(pyridin-2-yl)pyrrolidin-1-yl)ethyl)urea]
16 | 1 to 100 | 1 to 100 | CCN1Cc2cc(CCC(=O)NCC(=O)N(C)[C@H](C)c3ccccc3)ccc2NCCC1=O [Compound 31, (R)-3-(5-ethyl-4-oxo-1,2,3,4,5,6-hexahydrobenzo[b][1,5]diazocin-8-yl)-N-(2-(methyl(1-phenylethyl)amino)-2-oxoethyl)propanamide]
17 | 1 to 100 | 1 to 100 | CCN1Cc2cc(CCC(=O)NCC(=O)N3CCCC3c3ccccn3)ccc2NCCC1=O (stereo not shown) [Compound 28, 3-(5-Ethyl-4-oxo-1,2,3,4,5,6-hexahydro-benzo[b][1,5]diazocin-8-yl)-N-[2-oxo-2-(2-pyridin-2-yl-pyrrolidin-1-yl)-ethyl]-propionamide]
18 | 1 to 100 | 1 to 100 | O=C(NCC(=O)N1CCC[C@@H]1C(F)(F)F)NCc1ccc2c(c1)[C@@H]1C[C@H](N2)[C@H](O)CO1 [Compound 37, 1-(((2S,3S,6S)-3-hydroxy-2,3,4,6-tetrahydro-1H-2,6-methanobenzo[c][1,5]oxazocin-8-yl)methyl)-3-(2-oxo-2-((R)-2-(trifluoromethyl)pyrrolidin-1-yl)ethyl)urea]
19 | 1 to 100 | 1 to 100 | CN(C(=O)CNC(=O)NCc1ccc2c(c1)[C@H]1C[C@@H](N2)[C@H](O)CO1)C1CCCC1 [Compound 20, N-cyclopentyl-2-(3-(((2R,3S,6R)-3-hydroxy-2,3,4,6-tetrahydro-1H-2,6-methanobenzo[c][1,5]oxazocin-8-yl)methyl)ureido)-N-methylacetamide]
20 | 1 to 100 | 1 to 100 | O=C(NCC(=O)N1CCC[C@@H]1CO)NCc1ccc2c(c1)[C@H]1C[C@@H](N2)[C@H](O)CO1 [Compound 14, 1-(((2R,3S,6R)-3-hydroxy-2,3,4,6-tetrahydro-1H-2,6-methanobenzo[c][1,5]oxazocin-8-yl)methyl)-3-(2-((R)-2-(hydroxymethyl)pyrrolidin-1-yl)-2-oxoethyl)urea]

Source: patent publication US20170283425A1, “COMPOUNDS FOR THE INHIBITION OF CYCLOPHILINS AND USES THEREOF” (Merck Patent GmbH, priority 2016, published 2017)
